From ChEMBL document CHEMBL3045690, “Ligand-based drug design studies using predictive pharmacophore model generation on 4H-1,2,4-triazoles as AT1 receptor antagonists” (Med Chem Res, 2012) come the findings set out here.

This test deals with T1, Type-1 angiotensin II receptor (Oryctolagus cuniculus, UniProt P34976).
T1 sequence (P34976 whole entry): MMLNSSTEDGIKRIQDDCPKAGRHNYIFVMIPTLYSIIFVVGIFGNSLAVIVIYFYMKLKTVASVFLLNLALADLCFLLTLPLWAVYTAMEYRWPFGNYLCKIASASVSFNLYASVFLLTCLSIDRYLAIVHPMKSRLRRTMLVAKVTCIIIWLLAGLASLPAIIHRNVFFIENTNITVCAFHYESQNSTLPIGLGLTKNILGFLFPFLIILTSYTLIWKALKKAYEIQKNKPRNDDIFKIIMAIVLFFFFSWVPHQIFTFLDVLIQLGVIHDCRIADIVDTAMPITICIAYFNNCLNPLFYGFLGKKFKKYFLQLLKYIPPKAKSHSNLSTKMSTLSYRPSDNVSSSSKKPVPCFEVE
Briefly: Antagonist activity at AT1 receptor in Oryctolagus cuniculus (rabbit) aorta.
For `CCCCc1nnc([S+]([O-])Cc2ccc(Cl)cc2)n1Cc1ccc(NC(=O)c2ccccc2-c2nn[nH]n2)cc1` (stereo unspecified), the IC50 (as a rule, the concentration that gives 50% inhibition) came to 11 nM.

Turning to `CCCCc1nnc([S+]([O-])Cc2ccc(OC)cc2)n1Cc1ccc(NC(=O)c2ccccc2-c2nn[nH]n2)cc1` (stereo unspecified), the IC50 was 50 nM.

`CCCCc1nnc(C(=O)NCc2ccccc2)n1Cc1ccc(NC(=O)c2ccccc2-c2nnn[nH]2)cc1` had an IC50 of 57 nM.

In the case of `CCCCc1nnc(C(=O)N(C)Cc2ccccc2)n1Cc1ccc(NC(=O)c2ccccc2-c2nnn[nH]2)cc1`, half-maximal inhibition (IC50) required 89 nM. This IC50 lies about 1.6-fold higher than the previous one.

Regarding `CCCCc1nnc(C(=O)N(C)c2ccccc2)n1Cc1ccc(NC(=O)c2ccccc2-c2nnn[nH]2)cc1`, half-maximal inhibition (IC50) was put at 350 nM.

Take `CCCCc1nnc(SC(C)(C)C)n1Cc1ccc(NC(=O)c2ccccc2C(=O)O)cc1`: it took 890 nM to reach half-maximal inhibition (IC50). This IC50 lies about 2.5-fold higher than the previous one.

The molecule `CCCCc1nnc(SC)n1Cc1ccc(NC(=O)c2ccccc2-c2nnn[nH]2)cc1` returned an IC50 of 310 nM.

For `CCCCc1nnc(SCC(C)C)n1Cc1ccc(NC(=O)c2ccccc2-c2nnn[nH]2)cc1`, the IC50 was 72 nM.

In turn, `CCCCc1nnc(SCC2CCCCC2)n1Cc1ccc(NC(=O)c2ccccc2-c2nnn[nH]2)cc1` gave an IC50 of 36 nM. This IC50 lies about 2-fold lower than the previous one.

`CCCCc1nnc(Sc2ccccc2)n1Cc1ccc(NC(=O)c2ccccc2-c2nnn[nH]2)cc1` yielded an IC50 of 100 nM.

On to `CCCCc1nnc(SCc2ccccc2)n1Cc1ccc(NC(=O)c2ccccc2-c2nnn[nH]2)cc1`, for which the IC50 turned out to be 7.1 nM.

For `CCCCc1nnc(SCCc2ccccc2)n1Cc1ccc(NC(=O)c2ccccc2-c2nnn[nH]2)cc1`, the IC50 worked out at 35 nM.

The molecule `CCCCc1nnc(SCc2ccccc2C)n1Cc1ccc(NC(=O)c2ccccc2-c2nnn[nH]2)cc1` displayed an IC50 of 17 nM. Compared with the last molecule, the IC50 is about 2.1-fold lower.

`CCCCc1nnc(SCc2ccccc2Cl)n1Cc1ccc(NC(=O)c2ccccc2-c2nnn[nH]2)cc1`: the IC50 was 110 nM. Against the preceding molecule, the IC50 is about 6.5-fold higher.

Take `CCCc1nnc(SCc2ccc(Cl)cc2)n1Cc1ccc(NC(=O)c2ccccc2-c2nnn[nH]2)cc1`: the IC50 was found to be 98 nM.

In the case of `CCCCCc1nnc(SCc2ccc(Cl)cc2)n1Cc1ccc(NC(=O)c2ccccc2-c2nnn[nH]2)cc1`, the IC50 is 94 nM.

`CCCCc1nnc(SCc2ccccc2[N+](=O)[O-])n1Cc1ccc(NC(=O)c2ccccc2-c2nnn[nH]2)cc1`: the midpoint of inhibition, the IC50, lay at 130 nM.

Molecule `CCCCc1nnc(SCc2ccc([N+](=O)[O-])cc2)n1Cc1ccc(NC(=O)c2ccccc2-c2nnn[nH]2)cc1` came in with an IC50 of 6.6 nM. Compared with the last molecule, the IC50 is about 20-fold lower.

`CCCCc1nnc(SCc2cccc(OC)c2)n1Cc1ccc(NC(=O)c2ccccc2-c2nnn[nH]2)cc1` gave an IC50 of 94 nM.

In the case of `CCCCc1nnc(SCc2ccc(C(=O)OC)cc2)n1Cc1ccc(NC(=O)c2ccccc2-c2nnn[nH]2)cc1`, half-maximal inhibition (IC50) required 120 nM.

The molecule `CCCCc1nnc(SCc2ccc(C(=O)O)cc2)n1Cc1ccc(NC(=O)c2ccccc2-c2nnn[nH]2)cc1` returned an IC50 of 24 nM.

`CCCCc1nnc(SCc2ccccc2C(=O)OC)n1Cc1ccc(NC(=O)c2ccccc2-c2nnn[nH]2)cc1` came in with an IC50 of 90 nM.

Molecule `CCCCc1nnc(SCc2ccccc2C(=O)O)n1Cc1ccc(NC(=O)c2ccccc2-c2nnn[nH]2)cc1` returned an IC50 of 1.5 nM.

`CCCCc1nnc(SCc2ccccc2CO)n1Cc1ccc(NC(=O)c2ccccc2-c2nnn[nH]2)cc1`: the IC50 was found to be 36 nM.

On to `CCCCc1nnc(SCc2ccccc2-c2nnn[nH]2)n1Cc1ccc(NC(=O)c2ccccc2-c2nnn[nH]2)cc1`, for which the IC50 amounted to 1.4 nM.

`CCCCc1nnc(S(C)(=O)=O)n1Cc1ccc(NC(=O)c2ccccc2-c2nnn[nH]2)cc1` yielded a concentration for half-maximal inhibition (IC50) of 400 nM.

Molecule `CCCCc1nnc(S(=O)(=O)Cc2ccc(Cl)cc2)n1Cc1ccc(NC(=O)c2ccccc2-c2nnn[nH]2)cc1` gave an IC50 of 48 nM.

Turning to `CCCCc1nnc([S+]([O-])Cc2ccc([N+](=O)[O-])cc2)n1Cc1ccc(NC(=O)c2ccccc2-c2nnn[nH]2)cc1` (stereo unspecified), the IC50 amounted to 8.9 nM.

Regarding `CCCCc1nnc([S+]([O-])Cc2ccccc2C(=O)O)n1Cc1ccc(NC(=O)c2ccccc2-c2nnn[nH]2)cc1` (stereo unspecified), the concentration for half-maximal inhibition (IC50) is 10 nM.

Regarding `CCCCc1nnc(OCc2ccccc2)n1Cc1ccc(NC(=O)c2ccccc2-c2nnn[nH]2)cc1`, inhibition was half-maximal at 370 nM (IC50).

Molecule `CCCCc1nnc(OCCc2ccccc2)n1Cc1ccc(NC(=O)c2ccccc2-c2nnn[nH]2)cc1` gave an IC50 of 63 nM.

The molecule `CCCCc1nnc(NCc2ccccc2)n1Cc1ccc(NC(=O)c2ccccc2-c2nnn[nH]2)cc1` had an IC50 of 28 nM.

Turning to `CCCCc1nnc(NCc2ccc(Cl)cc2)n1Cc1ccc(NC(=O)c2ccccc2-c2nnn[nH]2)cc1`, the IC50 amounted to 140 nM.

The molecule `CCCCc1nnc(NCc2ccc(OC)cc2)n1Cc1ccc(NC(=O)c2ccccc2-c2nnn[nH]2)cc1` came in with an IC50 of 780 nM.

Consider `CCCCc1nnc(S)n1Cc1ccc(NC(=O)c2ccccc2C(=O)O)cc1`, for which the IC50 was 860 nM.

In the case of `CCCSc1nnc(Cc2ccccc2)n1Cc1ccc(NC(=O)c2ccccc2C(=O)O)cc1`, half-maximal inhibition (IC50) required 320 nM.
